{"source": "patent US9238644B2", "about": "“VEGFR3 inhibitors” (CANCER THERAPEUTICS CRC PTY LIMITED, priority 2012, dated 2016)", "key": {"VEGFR3": {"target": "VEGFR3 (Homo sapiens (Human), UniProt P35916)", "sequence (P35916 25-1363)": "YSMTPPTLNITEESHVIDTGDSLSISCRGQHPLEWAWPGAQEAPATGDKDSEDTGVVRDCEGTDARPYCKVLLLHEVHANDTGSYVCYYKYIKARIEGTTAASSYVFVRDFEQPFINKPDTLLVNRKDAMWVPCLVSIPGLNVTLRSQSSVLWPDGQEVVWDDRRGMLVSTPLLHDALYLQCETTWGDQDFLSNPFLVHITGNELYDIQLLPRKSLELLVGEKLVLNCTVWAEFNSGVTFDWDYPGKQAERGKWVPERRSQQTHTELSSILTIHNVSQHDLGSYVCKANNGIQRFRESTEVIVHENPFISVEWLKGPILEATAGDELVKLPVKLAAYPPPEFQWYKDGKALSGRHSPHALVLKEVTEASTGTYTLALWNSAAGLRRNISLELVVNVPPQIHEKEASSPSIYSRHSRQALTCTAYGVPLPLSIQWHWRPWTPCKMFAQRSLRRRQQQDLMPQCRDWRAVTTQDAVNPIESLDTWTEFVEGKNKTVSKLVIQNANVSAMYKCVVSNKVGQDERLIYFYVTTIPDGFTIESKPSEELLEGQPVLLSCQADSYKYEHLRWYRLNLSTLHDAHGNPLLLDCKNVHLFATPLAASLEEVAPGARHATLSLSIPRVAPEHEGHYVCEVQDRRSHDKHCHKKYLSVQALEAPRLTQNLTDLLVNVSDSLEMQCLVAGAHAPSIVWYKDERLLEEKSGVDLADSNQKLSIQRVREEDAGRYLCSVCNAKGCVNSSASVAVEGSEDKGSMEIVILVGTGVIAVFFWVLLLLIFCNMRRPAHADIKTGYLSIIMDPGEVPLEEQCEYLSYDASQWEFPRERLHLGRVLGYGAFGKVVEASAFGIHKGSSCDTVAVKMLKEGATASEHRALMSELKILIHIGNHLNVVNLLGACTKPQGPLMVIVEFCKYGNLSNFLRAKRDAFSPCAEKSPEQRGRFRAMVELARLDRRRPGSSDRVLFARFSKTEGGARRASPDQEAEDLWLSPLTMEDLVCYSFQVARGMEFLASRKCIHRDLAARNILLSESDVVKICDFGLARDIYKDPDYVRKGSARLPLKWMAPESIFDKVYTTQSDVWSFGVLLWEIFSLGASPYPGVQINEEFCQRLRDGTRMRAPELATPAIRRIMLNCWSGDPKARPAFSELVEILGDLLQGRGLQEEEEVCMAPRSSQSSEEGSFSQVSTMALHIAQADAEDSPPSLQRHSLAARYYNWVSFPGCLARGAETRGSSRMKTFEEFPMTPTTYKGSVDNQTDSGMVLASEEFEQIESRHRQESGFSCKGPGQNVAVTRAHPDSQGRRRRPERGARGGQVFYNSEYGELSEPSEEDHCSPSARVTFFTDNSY", "assay": "VEGFR3 Phospho ELISA assay", "type": "cell-based", "conditions": "HMVEC-dLyAD cells, treated 1 hour, VEGFC stimulated; phospho VEGFR3 relative to Total VEGFR3", "experimental": "Adult human dermal lymphatic microvascular endothelial cells (HMVEC-dLyAD) (Cat# CC-2810, Lonza) were seeded into clear-bottom, TC treated 12 well plates (Cat #665180, Greiner Bio-One) in EGM-2MV (Cat# CC-3202, Lonza) at 180,000 cells/well (volume 1 mL), and the plates incubated at 37° C. and 5% CO2 for 6 hours.\n96 well Maxisorp immuno plates (Cat #439454, Nunc) were coated with 100 μL of Total VEGFR3 capture antibody (Part #841888, Human Total VEGFR3/FLT4 ELISA Kit, Cat # DYC3491, R&D Systems), or Phospho VEGFR3 Capture antibody (Part #841885, Human Phospho VEGFR3/FLT4 ELISA Kit, Cat# DYC2724, R&D Systems). The plates were covered and incubated at room temperature overnight.\nThe coating antibody was flicked out and the plates washed three times with Wash Buffer (Phosphate buffered saline (137 mM NaCl, 2.7 nM KCl, 8.1 nM Na2HPO4, 1.5 mL KH2PO4, pH 7.2-7.4), 0.05% Tween 20). 300 μL of blocking buffer (5% v/v Tween 20, 5% w/v sucrose in PBS) was then added to wells and plate incubated for 2 hours at room temperature. Blocking solution is flicked out and plates washed three times and tapped dry.\nCompound dilution series were prepared in EBM-2 (Cat # CC-3156, Lonza)+0.1% BSA (Cat# A8412, Sigma) with constant 0.1% DMSO concentration. […]\nTotal VEGFR3 levels were quantified using a Multiskan Ascent plate reader and Ascent software fitted with 450 nm filter. […]"}, "VEGFR2": {"target": "VEGFR2 (Homo sapiens (Human), UniProt P35968)", "sequence (P35968 20-1356)": "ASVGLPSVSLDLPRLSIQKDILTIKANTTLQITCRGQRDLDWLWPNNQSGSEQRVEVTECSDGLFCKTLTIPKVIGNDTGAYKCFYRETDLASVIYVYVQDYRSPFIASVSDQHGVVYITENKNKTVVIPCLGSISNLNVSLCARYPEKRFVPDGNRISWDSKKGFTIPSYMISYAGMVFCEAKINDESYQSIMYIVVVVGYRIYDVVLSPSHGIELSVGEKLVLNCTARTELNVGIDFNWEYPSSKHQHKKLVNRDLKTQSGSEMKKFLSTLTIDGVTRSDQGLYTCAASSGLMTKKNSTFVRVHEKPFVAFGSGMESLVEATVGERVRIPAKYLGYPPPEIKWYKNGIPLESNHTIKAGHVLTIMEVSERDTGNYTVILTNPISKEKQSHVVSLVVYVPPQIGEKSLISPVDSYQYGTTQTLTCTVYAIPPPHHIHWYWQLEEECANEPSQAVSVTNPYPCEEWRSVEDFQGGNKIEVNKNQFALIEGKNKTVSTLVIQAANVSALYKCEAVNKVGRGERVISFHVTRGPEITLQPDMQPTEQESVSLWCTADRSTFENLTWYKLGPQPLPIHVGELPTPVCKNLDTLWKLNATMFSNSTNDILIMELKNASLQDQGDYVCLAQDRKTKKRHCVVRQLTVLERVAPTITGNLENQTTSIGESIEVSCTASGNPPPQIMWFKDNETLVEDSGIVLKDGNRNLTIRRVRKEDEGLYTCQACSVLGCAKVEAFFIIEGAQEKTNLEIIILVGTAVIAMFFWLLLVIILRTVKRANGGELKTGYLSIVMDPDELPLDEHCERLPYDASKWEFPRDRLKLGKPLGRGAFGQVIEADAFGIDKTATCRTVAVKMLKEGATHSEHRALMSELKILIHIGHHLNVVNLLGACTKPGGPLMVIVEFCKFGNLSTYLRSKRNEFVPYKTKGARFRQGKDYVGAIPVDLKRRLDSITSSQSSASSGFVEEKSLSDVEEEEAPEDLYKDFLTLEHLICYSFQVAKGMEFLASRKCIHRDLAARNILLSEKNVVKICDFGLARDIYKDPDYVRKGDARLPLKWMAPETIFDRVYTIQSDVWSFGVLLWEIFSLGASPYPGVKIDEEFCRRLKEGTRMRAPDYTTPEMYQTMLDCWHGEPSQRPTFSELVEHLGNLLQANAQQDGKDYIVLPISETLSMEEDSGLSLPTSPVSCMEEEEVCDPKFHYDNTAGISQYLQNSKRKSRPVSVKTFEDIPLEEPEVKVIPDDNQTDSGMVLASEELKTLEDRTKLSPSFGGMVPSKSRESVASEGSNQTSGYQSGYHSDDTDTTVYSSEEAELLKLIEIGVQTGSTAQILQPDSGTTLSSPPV", "assay": "VEGFR2 Phospho ELISA assay", "conditions": "HUVEC, treated 1 hour, VEGF stimulated; phospho VEGFR2 relative to Total VEGFR2"}, "[1]": {"target": "VEGFR3 cytoplasmic domain (Homo sapiens, UniProt P35916)", "sequence (P35916 25-1363 limits assumed)": "as the sequence (P35916 25-1363) above", "assay": "VEGFR3 Biochemical assay (AlphaScreen)", "conditions": "N-terminal GST-fusion enzyme, 500 μM ATP, 90 minutes at 30 degree Celsius (modified form: Hexa-His-fusion, 1 μM ATP)"}}, "note": "pIC50: −log10 of the molar value."}
{"smiles": "CCC(C(N)=O)c1ccccc1CCc1nc(Nc2ccc(C3CCNCC3)cc2)ncc1C(F)(F)F", "note": "(racemic) [Compound 1, 2-(2-(2-(2-((4-(piperidin-4-yl)phenyl)amino)-5-(trifluoromethyl)pyrimidin-4-yl)ethyl)phenyl)butanamide]", "values": [{"measurement": "pIC50", "setting": "VEGFR3", "value": 6.76}, {"measurement": "pIC50", "setting": "VEGFR2", "value": "< 5.00"}, {"measurement": "pIC50", "setting": "[1]", "value": 7.04}]}
{"smiles": "CC(C(N)=O)c1ccccc1CCc1nc(Nc2cnn(C3CCNCC3)c2)ncc1C(F)(F)F", "note": "(racemic) [Compound 56, 2-(2-(2-(2-((1-(piperidin-4-yl)-1H-pyrazol-4-yl)amino)-5-(trifluoromethyl)pyrimidin-4-yl)ethyl)phenyl)propanamide]", "values": [{"measurement": "pIC50", "setting": "VEGFR2", "value": 5.65}]}
{"smiles": "CC(C(N)=O)c1ccccc1CCc1nc(Nc2cnn(C3CCN(C)CC3)c2)ncc1C(F)(F)F", "note": "(single isomer, unassigned) [Compound 57-2A, 2-(2-(2-(2-((1-(1-Methylpiperidin-4-yl)-1H-pyrazol-4-yl)amino)-5-(trifluoromethyl)pyrimidin-4-yl)ethyl)phenyl)propanamide]", "values": [{"measurement": "pIC50", "setting": "VEGFR2", "value": 6.42}]}
{"smiles": "NC(=O)C1(c2ccccc2CCc2nc(Nc3ccc(C(F)(F)F)nc3)ncc2C(F)(F)F)CC1", "note": "[Compound 10]", "values": [{"measurement": "pIC50", "setting": "[1]", "value": 7.04}]}
